Results published in US8101783B1, “Titanium-maltol compound and method of synthesizing the same” (priority 2007, dated 2012).

Legend:
[1] = Stability of the crystals removed from the mother liquor; format: physicochemical; settings: when removed from the mother liquor
[2] = Solubility of the Ti(IV)-maltol complexes in water and in CH2Cl2; format: physicochemical
Description: Alternatively, more than two (and preferably three) equivalents of maltol could be used to provide an excess and ensure completion of the reaction.
However, at pH of 8.4 the complex becomes soluble in water but promotes tetramerization of the [Ti(maltolato)2(OH)2] species. In fact, this can be monitored by NMR spectroscopy. A pure sample of cis-[Ti(maltolato)2(OH)2] was dissolved in D2O at pH of 8.4. […] These two species belong most likely to cis-[Ti(maltolato)2(OH)2] and [Ti4(maltolato)8(μ-O)4]. After 24 hours the tetrameric species continues increasing while the monomeric species decreases. Upon standing for two weeks, at pH of 8.4, this solution yields orange crystals suitable for X-ray diffraction. Evidently, Ti(maltolato)2(OH)2 further reacts to form a tetranuclear titanium complex, which crystallizes as a hydrate, [Ti4(maltolato)8(μ-O)4].18H2O, Single crystal X-ray structure determination was pursued on this high pH species, which solid state structure is illustrated in FIG. 2. The crystal data and structure refinement details as well as the bonding parameters are summarized below in Table 1 and Table 2, respectively.
Electrochemical behavior of Ti(maltolato)2(OH)2 was investigated using cyclic voltammetry (cv). Ti(maltolato)2(OH)2 in CH2Cl2/[NBu4] […] If this potential is compared with previously reported Ti(IV)-maltol and Ti(IV)-guaiacol complexes, it resembles to reduction potentials of monomeric species such as Ti(maltolato)2(OEt)2 (−1.0 V) and Ti(maltolato)2(Cl)2 (−1.55 V) and not to the tetrameric species [Ti4(guaiacolato)8(μ-O)4] (−1.94 V).

[3] = physiological pH; cited from earlier work

With `Cc1occc(=O)c1[O-].Cc1occc(=O)c1[O-].Cc1occc(=O)c1[O-].Cc1occc(=O)c1[O-].Cc1occc(=O)c1[O-].Cc1occc(=O)c1[O-].Cc1occc(=O)c1[O-].Cc1occc(=O)c1[O-].O.O.O.O.O.O.O.O.O.O.O.O.O.O.O.O.O.O.[O-2].[O-2].[O-2].[O-2].[Ti+4].[Ti+4].[Ti+4].[Ti+4]` [[Ti4(maltolato)8(μ-O)4].18H2O] as the compound, how does the stability of crystals [1] read?
The stability of crystals was “unstable and undergoes dehydration”.

Which “solubility in CH2Cl2” value ([2]; CH2Cl2, cyclic voltammetry attempt) does the source give for `Cc1occc(=O)c1[O-].Cc1occc(=O)c1[O-].Cc1occc(=O)c1[O-].Cc1occc(=O)c1[O-].Cc1occc(=O)c1[O-].Cc1occc(=O)c1[O-].Cc1occc(=O)c1[O-].Cc1occc(=O)c1[O-].[O-2].[O-2].[O-2].[O-2].[Ti+4].[Ti+4].[Ti+4].[Ti+4]` [[Ti4(maltolato)8(μ-O)4]] here?
Its value is “lack of solubility”.

With `CC(=O)[CH-]C(=O)c1ccccc1.CC(=O)[CH-]C(=O)c1ccccc1.CC[O-].CC[O-].[Ti+4]` [budotitane] as the compound, how does the hydrolytic stability [3] read?
Its hydrolytic stability is “low hydrolytic stability”.

What does the source list for “dihydroxobis(maltolato)titanium(IV) [Ti(maltolato)2(OH)2]”?
solubility in water ([2]; low pH (5.4)): slightly water soluble; solubility in water ([2]; pH of 8.4, promotes tetramerization): soluble

Which hydrolytic stability [3] does the source give for titanocene dichloride here?
Its hydrolytic stability is “low hydrolytic stability”.
